From ChEMBL document CHEMBL1907987, “Human UDP-glucuronosyltransferases: metabolism, expression, and disease” (Annu Rev Pharmacol Toxicol, 2000)
Values joined by “and” are separate entries in the source; they are usually repeats but may differ in a detail not shown here. Equal entries are not always repeated.

Columns and labels:
[1] = molecular target: T1, UDP-glucuronosyltransferase 2B7 (Homo sapiens, UniProt P16662); assay: Specific activity of expressed human recombinant UGT2B7Y; assay type: ADME; details: recombinant enzyme
T1 sequence (P16662 whole entry): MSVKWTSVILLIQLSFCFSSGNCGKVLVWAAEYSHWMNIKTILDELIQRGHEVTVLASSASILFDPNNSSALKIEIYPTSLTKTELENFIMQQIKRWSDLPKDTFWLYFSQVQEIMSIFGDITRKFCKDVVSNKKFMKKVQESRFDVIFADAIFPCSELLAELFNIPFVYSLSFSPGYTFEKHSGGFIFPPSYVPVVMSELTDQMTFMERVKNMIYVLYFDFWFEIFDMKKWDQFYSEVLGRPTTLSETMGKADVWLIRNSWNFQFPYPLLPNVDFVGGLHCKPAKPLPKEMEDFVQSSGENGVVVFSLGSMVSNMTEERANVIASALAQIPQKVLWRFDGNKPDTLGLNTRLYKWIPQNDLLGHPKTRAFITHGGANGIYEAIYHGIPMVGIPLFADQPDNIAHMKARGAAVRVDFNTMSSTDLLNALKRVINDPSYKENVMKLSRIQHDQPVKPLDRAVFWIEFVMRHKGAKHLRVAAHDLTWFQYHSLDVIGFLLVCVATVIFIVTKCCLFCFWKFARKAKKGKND

[2] = molecular target: T1, UDP-glucuronosyltransferase 2B7; assay: Specific activity of expressed human recombinant UGT2B7H; assay type: ADME; details: recombinant enzyme

Structure (SMILES)	Activity [1]	Activity [2]
CN1CC[C@]23CCCC[C@H]2[C@H]1Cc1ccc(O)cc13 [LEVORPHANOL]	33 pm/min/mg and 25 pm/min/mg	–
COc1ccc2c3c1O[C@H]1[C@@H](O)C=C[C@H]4[C@@H](C2)N(C)CC[C@@]341 [CODEINE]	–	80 pm/min/mg and 54 pm/min/mg
C=C1CC[C@@]2(O)[C@H]3Cc4ccc(O)c5c4[C@@]2(CCN3CC2CC2)[C@H]1O5	625 pm/min/mg	380 pm/min/mg and 412 pm/min/mg
C[C@]12CC[C@@H](O)C[C@@H]1CC[C@@H]1[C@@H]2CC[C@]2(C)C(=O)CC[C@@H]12 (stereo in doubt; form 1) [ANDROSTERONE]	94 pm/min/mg	114 pm/min/mg
C=CCN1CC[C@]23c4c5ccc(O)c4O[C@H]2C(=O)CC[C@@]3(O)[C@H]1C5 [NALOXONE]	–	2908 pm/min/mg and 3462 pm/min/mg
CN1CC[C@]23c4c5ccc(O)c4O[C@H]2[C@@H](O)C=C[C@H]3[C@H]1C5 (stereo in doubt; (-)) [MORPHINE]	3719 pm/min/mg	2536 pm/min/mg and 2968 pm/min/mg
CN1CC[C@]23c4c5ccc(O)c4O[C@H]2C(=O)CC[C@H]3[C@H]1C5 (stereo in doubt; form 1) [HYDROMORPHONE]	530 pm/min/mg	617 pm/min/mg and 856 pm/min/mg
CN1CC[C@]23c4c5ccc(O)c4O[C@H]2C(=O)CC[C@H]3[C@H]1C5 (stereo in doubt; form 2) [HYDROMORPHONE]	1550 pm/min/mg	–
C[C@]12CC[C@H]3[C@@H](CCC4=CC(=O)CC[C@@]43C)[C@@H]1CC[C@H]2O [EPITESTOSTERONE]	468 pm/min/mg and 240 pm/min/mg	360 pm/min/mg
C[C@]12CC[C@H]3[C@@H](CCC4=CC(=O)CC[C@@]43C)[C@@H]1CC[C@@H]2O (stereo in doubt; form 2) [TESTOSTERONE]	0 pm/min/mg	0 pm/min/mg
Oc1ccc2c3c1O[C@H]1[C@@H](O)C=C[C@H]4[C@@H](C2)NCC[C@@]341 [NORMORPHINE]	80 pm/min/mg	–
Oc1ccc2c3c1O[C@H]1c4[nH]c5ccccc5c4C[C@@]4(O)[C@@H](C2)N(CC2CC2)CC[C@]314 [NALTRINDOLE]	453 pm/min/mg	349 pm/min/mg and 456 pm/min/mg
Oc1ccc2c3c1O[C@H]1[C@@H](O)CC[C@@]4(O)[C@@H](C2)N(CC2CCC2)CC[C@]314 [NALBUPHINE]	1100 pm/min/mg	758 pm/min/mg and 862 pm/min/mg
CN1CC[C@]23c4c5ccc(O)c4O[C@H]2C(=O)CC[C@@]3(O)[C@H]1C5 [OXYMORPHONE]	2300 pm/min/mg	2944 pm/min/mg and 3139 pm/min/mg
C=CCN1CC[C@]23c4c5ccc(O)c4O[C@H]2[C@@H](O)C=C[C@H]3[C@H]1C5 [NALORPHINE]	–	1483 pm/min/mg and 1051 pm/min/mg
Oc1ccc2c3c1O[C@H]1c4oc5ccccc5c4C[C@@]4(O)[C@@H](C2)N(CC2CC2)CC[C@]314 [NALTRIBEN]	150 pm/min/mg and 97 pm/min/mg	0 pm/min/mg
CC1CC[C@H](C(C)C)[C@@H](O)C1 (stereo partly drawn) [(+)-MENTHOL]	247 pm/min/mg and 147 pm/min/mg	255 pm/min/mg and 191 pm/min/mg
O=C1CC[C@@]2(O)[C@H]3Cc4ccc(O)c5c4[C@@]2(CCN3CC2CC2)[C@H]1O5 [NALTREXONE]	–	670 pm/min/mg and 662 pm/min/mg
CN1CC[C@]23c4c5ccc(O)c4O[C@H]2[C@@H](O)C=C[C@H]3[C@H]1C5 (stereo in doubt; (+)) [MORPHINE]	160 pm/min/mg	–
COc1ccc2c3c1O[C@H]1[C@@H](O)C=C[C@H]4[C@@H](C2)NCC[C@@]341 [NORCODEINE]	29 pm/min/mg and 24 pm/min/mg	–
CC1(C)[C@H]2CC[C@]1(C)[C@H](O)C2 [(-)-BORNEOL]	357 pm/min/mg and 174 pm/min/mg	388 pm/min/mg and 227 pm/min/mg
CO[C@]12CC[C@@]3(C[C@@H]1[C@](C)(O)C(C)(C)C)[C@H]1Cc4ccc(O)c5c4[C@@]3(CCN1CC1CC1)[C@H]2O5 [BUPRENORPHINE]	–	478 pm/min/mg and 280 pm/min/mg
